Converted amounts (≈) assume the structure as drawn.

As usually defined, the NOAEL is the highest tested level that showed no adverse finding.

For data set [1], the system named is Anas platyrhynchos. Particulars: acute; oral; unspecified; mortality.
In data set [2] the test system is Apis mellifera. Conditions: acute; duration: 48 hours; dermal; mortality.
For data set [3], the system named is Bibionidae. Particulars: chronic/long-term; duration: 28 days.
Data set [4] concerns Canidae. Particulars: chronic; duration: 1 years; oral; Dog Other; food consumption.
The subject of data set [5] is Colinus virginianus.
Data set [6] relates to Daphnia magna. Conditions: chronic/long-term; duration: 21 days; behavior.
For data set [7], the system named is Folsomia candida. Conditions: acute; duration: 14 days; mortality.
Data set [8] concerns Oncorhynchus mykiss. Conditions: chronic/long-term; duration: 63 days.
Data set [9] deals with Perca sp. Particulars: acute; duration: 96 hours; mortality.
Data set [10] has as its system Rattus norvegicus.
In data set [11] the test system is Tagia sp. Particulars: acute; duration: 14 days; mortality.
Data set [12] relates to Adalia sp. The experiment in a line: LR50; higher = less toxic. Conditions: not reported; mortality.
Data set [13] relates to Typhlodromus pyri. Put plainly: LR50; higher = less toxic. Particulars: not reported; mortality.
Where [14] appears, read: reproduction developmental, reproduction.

For `CC(C)(C)c1ccc(CCOc2ncnc3ccccc23)cc1` [Fenazaquin], the LD50 was above 2000 mg/kg in data set [1]; 1.21 µg/piece in data set [2]; 1750 mg/kg in data set [5] (acute, oral, mortality); 134 mg/kg in data set [10] (acute, oral, M, mortality). Moreover, the NOEC in data set [3] is 0.0188 mg/kg; in data set [5] (setting [14]), 80.3 mg/kg-day; in data set [6], 0.0014 mg/L; in [8], 0.00096 mg/L. Also, the NOAEL in [4] turned out to be 5 mg/kg-day; in [10] (chronic, duration: 2 years, oral, histopathology: nonneoplastic) it was 0.46 mg/kg-day; in data set [10] (reproduction developmental, food consumption), 10 mg/kg-day. Also, the LC50 in data set [5] (acute, oral, diet, mortality) is above 1170 mg/kg-day; in data set [7], above 1000 mg/kg; in data set [9], 3.2 ng/mL (≈ 0.0104 µM); in data set [11] it was 26.5 mg/kg. In [10] (setting [14]), the NOEL was 25 mg/kg-day. Moreover, the LR50 in data set [12] is below 21.9 g/ha; in data set [13] it was below 2 g/ha.

The values above are taken from EPA's ToxValDB 9.5 (doi:10.2903/j.efsa.2010.1892).
